Reference: PubChem BioAssay AID1895 (NMMLSC, 2009)
Activity calls are given as the source filed them. How the calls were made is not given here.

Target: MEK5 PB1 domain binding to MEKK2 (MAP3K2) mutant PB1, human
Assay: mutant MEKK2 PB1-MEK5 interaction blockers – biochemical, bead multiplex flow cytometry, dose response (AID 1895)
Settings: Bead-based multiplex flow cytometry; for Ki: measured here: Ki for PB1 binding

Row | SMILES | EC50 | Ki [µM]
1 | O=C(c1cc(COc2c(F)cccc2F)on1)N1C[C@H]2CC[C@H]1C2 | > 30 µM (inactive) | –
2 | CCN1CCN(CCNC(=O)c2ccc(/C=C3/Sc4ccccc4N(Cc4cccc(C)c4)C3=O)cc2)CC1 | 10.6 µM | –
3 | COC(=O)C1=C(C)N(Cc2ccccc2)C(=NCc2cccc(C(F)(F)F)c2)N[C@H]1c1cccc(F)c1 | 13.8 µM | –
4 | COc1ccc(Cn2c(SCc3ccccc3C)nc3cc(OC)c(OC)cc3c2=N)cc1 | > 30 µM (inactive) | –
5 | CCN(CC)CCOC(=O)c1ccc(N/C=C(/C#N)c2nc(-c3ccc4c(c3)OCO4)cs2)cc1 | > 30 µM (inactive) | –
6 | Cc1nc(Nc2cnc(/C=C/c3cc(C(=O)Nc4cccc(C(F)(F)F)c4)ccc3C)cn2)cc(N2CCNCC2)n1 | > 30 µM (inactive) | –
7 | Cc1cc2ccccc2n1CCNC(=O)c1ccc(Br)o1 | inactive | 2.87
8 | CCC(=C/c1sc2ccc3ccccc3c2[n+]1C)/C=C1\Sc2ccc3ccccc3c2N1C | inactive | 0.14
9 | C#CCOCCOCCOCCNc1nc(N2CCN(C(=O)[C@H]([C@@H](C)CC)n3cc([C@@H](N)CO)nn3)CC2)nc(N2CCN(C(=O)[C@H](Cc3cc4ccccc4[nH]3)n3cc([C@@H](N)C(C)CC)nn3)CC2)n1 (stereo not given in full) | > 30 µM (inactive) | –
10 | O=C(OCC1O[C@@H](OC(=O)c2cc(O)c(O)c(O)c2)[C@@H](OC(=O)c2cc(O)c(O)c(O)c2)[C@@H](OC(=O)c2cc(O)c(O)c(O)c2)[C@@H]1OC(=O)c1cc(O)c(O)c(O)c1)c1cc(O)c(O)c(O)c1 (stereo not given in full) | > 30 µM (inactive) | –
11 | Nc1ccc(N)c(C(=O)O)c1 | > 30 µM (inactive) | –
12 | Nc1ccc(Nc2ccccc2N)cc1 | > 30 µM (inactive) | –
13 | CCOC(=O)C1=C(c2ccccc2)NC(N)=NC1c1ccc(OCc2ccc(Cl)cc2)c(OC)c1 (stereo not given) | 9.64 µM | –
14 | C=CC#CC[N+]1(CC#Cc2ccccc2)CCOCC1 | > 30 µM (inactive) | –
15 | O=C1Nc2ccc(Br)cc2/C1=N/N=C/C1=C(N2CCOCC2)C(=C\c2ccccc2)/CC1 | inactive | 2.03
16 | COc1ccc(CNC[C@@H](CCCCN(C)Cc2ccc(OC)cc2)N2C[C@H](c3ccccc3)N(CCc3ccc(Cl)c(Cl)c3)C(=O)C2=O)cc1 | > 30 µM (inactive) | –
17 | Cc1ccccc1OCC(O)CNC1CCC(NCC(O)COc2ccccc2C)CC1 (stereo not given) | > 30 µM (inactive) | –
